Measured values taken from PMC3246188, “Inhibition of endothelial- and neuronal-type, but not inducible-type, nitric oxide synthase by the oxidized cholesterol metabolite secosterol aldehyde: Implications for vascular and neurodegenerative diseases” (Journal of Clinical Biochemistry and Nutrition, 2011).
Where two headings read alike, the source gives them in different places. Values belong to the molecule of their own block, whether it stands above or below them.

Experiments:
nNOS = biological target: T1, nNOS (Rattus norvegicus, UniProt P29476); test: NOS activity assay, conversion of L-[14C(U)]-arginine to L-[14C(U)]-citrulline, recombinant nNOS; format: biochemical; conditions: for Effect on nNOS activity: up to the highest concentration (100 µM); for Pattern of inhibition of nNOS activity: Lineweaver-Burke plot
T1 construct: purchased Cayman Chem
From the text: (§1) Secosterol-A and -B were synthesized according to Wentworth et al.([1]) L-Arginine, nicotinamide adenine dinucleotide phosphate reduced form (NADPH), flavin adenine dinucleotide (FAD), flavin mononucleotide (FMN), (6R)-5,6,7,8-tetrahydrobiopterin (BH4), recombinant eNOS (from bovine), iNOS (from mouse macrophages), and Dowex® AG50W-X8 cation-exchange resin (mesh size, 100–200) were all purchased from Sigma Chem. (St. Louis, MO). Ultima Gold XR scintillation liquid was from PerkinElmer (Shelton, CA). Recombinant nNOS (from rat) was obtained from Cayman Chem. All other chemicals were obtained from Wako Pure Chem. Ind., Osaka, Japan.
(§2) The NOS activities were determined by monitoring the conversion of L-[^14C(U)]-arginine (Moravek, Brea, CA) to L-[^14C(U)]-citrulline as previously described.([28]) Recombinant enzymes of three isoforms of NOS (specific activity: eNOS 0.03, nNOS 2.9, iNOS 0.62 units/mg protein) (10 µl) were added to a reaction mixture (final volume of 100 µl) consisting of 50 mM HEPES buffer (pH 7.4), 1 mM NADPH, 4 µM FAD, 4 µM FMN, 10 µM BH4, 1 mg/L (60 µM) calmodulin (CaM), 2.5 mM CaCl2, 50 µM L-arginine, 0.5 µCi/ml of L-[^14C(U)]-arginine (specific activity: 8.14–11.1 GBq/mmol) and varying concentrations of the test compound. After incubation for 30 min at 37°C, the reactions were terminated by the addition of 0.5 ml of 20 mM HEPES (pH 5.5) containing 2 mM EDTA and 2 mM EGTA. Samples were passed through a 1 ml column of Dowex AG50W-X8 (Na^+-form) to remove unconverted L-[^14C(U)]-arginine. L-[^14C(U)]-Citrulline was eluted twice with 1 ml of distilled water, and the eluted fractions mixed with 10 ml of cocktail (Ultima Gold XR) were quantified using a liquid scintillation counter. A reaction mixture containing L-[^14C(U)]-arginine without the enzyme was incubated as a control to determine background counts. The effects of oxidized cholesterol metabolites on the NOSs activities were examined in the presence and absence of the test compounds at various concentrations, which were prepared in 5% ethanol and a 10 µl aliquot was added into the reaction mixture.
(§3) Initial rates of citrulline formation were obtained by linear leastsquares data fitting of actual experimental data. Apparent Km and Vmax values at each inhibitor concentration were obtained from nonlinear regression fitting using the Michaelis-Menten equation. Ki and Kiʹ were obtained from the X-axis intercepts of plots of measured Km/Vmax and 1/Vmax vs inhibitor concentration, respectively.

iNOS = biological target: T2, iNOS (Mus musculus, UniProt P29477); test: NOS activity assay, conversion of L-[14C(U)]-arginine to L-[14C(U)]-citrulline, recombinant iNOS; format: biochemical; conditions: tested 1–100 µM, highest concentration 100 µM
T2 construct: purchased Sigma Chem. (St. Louis, MO)
From the text: as §1, §2

eNOS = biological target: T3, eNOS (Bos taurus, UniProt P29473); test: NOS activity assay, conversion of L-[14C(U)]-arginine to L-[14C(U)]-citrulline, recombinant eNOS; format: biochemical, bovine; conditions: for Effect on eNOS activity: up to the highest concentration (100 µM)
T3 construct: purchased Sigma Chem. (St. Louis, MO)
T3 sequence (P29473 2-1205 limits assumed): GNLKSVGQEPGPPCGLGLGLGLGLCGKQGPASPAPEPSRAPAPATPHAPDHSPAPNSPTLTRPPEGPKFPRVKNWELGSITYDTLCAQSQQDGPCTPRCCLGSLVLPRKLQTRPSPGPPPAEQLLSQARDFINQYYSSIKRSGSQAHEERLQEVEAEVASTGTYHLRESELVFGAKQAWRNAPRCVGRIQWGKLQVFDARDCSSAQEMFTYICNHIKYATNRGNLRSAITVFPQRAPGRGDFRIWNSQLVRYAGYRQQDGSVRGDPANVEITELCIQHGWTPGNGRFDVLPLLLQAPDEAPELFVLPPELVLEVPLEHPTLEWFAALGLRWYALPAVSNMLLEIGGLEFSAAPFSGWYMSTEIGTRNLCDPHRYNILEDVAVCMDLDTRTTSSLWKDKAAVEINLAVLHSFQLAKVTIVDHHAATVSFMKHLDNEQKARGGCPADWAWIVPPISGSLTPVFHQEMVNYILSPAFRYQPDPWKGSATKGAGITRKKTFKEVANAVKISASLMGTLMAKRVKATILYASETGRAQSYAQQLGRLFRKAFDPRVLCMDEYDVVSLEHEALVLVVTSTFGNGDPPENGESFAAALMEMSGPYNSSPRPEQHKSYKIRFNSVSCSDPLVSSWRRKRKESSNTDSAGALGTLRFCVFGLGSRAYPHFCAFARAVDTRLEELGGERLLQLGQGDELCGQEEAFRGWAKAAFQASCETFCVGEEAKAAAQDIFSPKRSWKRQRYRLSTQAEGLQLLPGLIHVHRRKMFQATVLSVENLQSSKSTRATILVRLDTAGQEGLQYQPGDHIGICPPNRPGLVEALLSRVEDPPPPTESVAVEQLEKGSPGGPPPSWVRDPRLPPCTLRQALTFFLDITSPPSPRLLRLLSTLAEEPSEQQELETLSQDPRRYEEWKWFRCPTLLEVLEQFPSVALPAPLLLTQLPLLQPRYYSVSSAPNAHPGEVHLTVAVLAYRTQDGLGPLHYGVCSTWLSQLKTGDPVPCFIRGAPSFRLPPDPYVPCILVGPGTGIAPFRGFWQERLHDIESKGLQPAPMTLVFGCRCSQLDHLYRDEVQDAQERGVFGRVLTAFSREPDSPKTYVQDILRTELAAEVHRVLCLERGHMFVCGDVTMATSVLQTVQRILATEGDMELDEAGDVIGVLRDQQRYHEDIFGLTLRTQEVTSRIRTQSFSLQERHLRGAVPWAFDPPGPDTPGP
From the text: as §1, §2, §3

bovine serum albumin = bovine serum albumin (Bos taurus, UniProt P02769); test: Reaction with proteins to form the adduct (preliminary, unpublished data)
[1] = varying L-arginine, read-out: Ki(app) for the catalytic site

T1 sequence (P29476 whole entry): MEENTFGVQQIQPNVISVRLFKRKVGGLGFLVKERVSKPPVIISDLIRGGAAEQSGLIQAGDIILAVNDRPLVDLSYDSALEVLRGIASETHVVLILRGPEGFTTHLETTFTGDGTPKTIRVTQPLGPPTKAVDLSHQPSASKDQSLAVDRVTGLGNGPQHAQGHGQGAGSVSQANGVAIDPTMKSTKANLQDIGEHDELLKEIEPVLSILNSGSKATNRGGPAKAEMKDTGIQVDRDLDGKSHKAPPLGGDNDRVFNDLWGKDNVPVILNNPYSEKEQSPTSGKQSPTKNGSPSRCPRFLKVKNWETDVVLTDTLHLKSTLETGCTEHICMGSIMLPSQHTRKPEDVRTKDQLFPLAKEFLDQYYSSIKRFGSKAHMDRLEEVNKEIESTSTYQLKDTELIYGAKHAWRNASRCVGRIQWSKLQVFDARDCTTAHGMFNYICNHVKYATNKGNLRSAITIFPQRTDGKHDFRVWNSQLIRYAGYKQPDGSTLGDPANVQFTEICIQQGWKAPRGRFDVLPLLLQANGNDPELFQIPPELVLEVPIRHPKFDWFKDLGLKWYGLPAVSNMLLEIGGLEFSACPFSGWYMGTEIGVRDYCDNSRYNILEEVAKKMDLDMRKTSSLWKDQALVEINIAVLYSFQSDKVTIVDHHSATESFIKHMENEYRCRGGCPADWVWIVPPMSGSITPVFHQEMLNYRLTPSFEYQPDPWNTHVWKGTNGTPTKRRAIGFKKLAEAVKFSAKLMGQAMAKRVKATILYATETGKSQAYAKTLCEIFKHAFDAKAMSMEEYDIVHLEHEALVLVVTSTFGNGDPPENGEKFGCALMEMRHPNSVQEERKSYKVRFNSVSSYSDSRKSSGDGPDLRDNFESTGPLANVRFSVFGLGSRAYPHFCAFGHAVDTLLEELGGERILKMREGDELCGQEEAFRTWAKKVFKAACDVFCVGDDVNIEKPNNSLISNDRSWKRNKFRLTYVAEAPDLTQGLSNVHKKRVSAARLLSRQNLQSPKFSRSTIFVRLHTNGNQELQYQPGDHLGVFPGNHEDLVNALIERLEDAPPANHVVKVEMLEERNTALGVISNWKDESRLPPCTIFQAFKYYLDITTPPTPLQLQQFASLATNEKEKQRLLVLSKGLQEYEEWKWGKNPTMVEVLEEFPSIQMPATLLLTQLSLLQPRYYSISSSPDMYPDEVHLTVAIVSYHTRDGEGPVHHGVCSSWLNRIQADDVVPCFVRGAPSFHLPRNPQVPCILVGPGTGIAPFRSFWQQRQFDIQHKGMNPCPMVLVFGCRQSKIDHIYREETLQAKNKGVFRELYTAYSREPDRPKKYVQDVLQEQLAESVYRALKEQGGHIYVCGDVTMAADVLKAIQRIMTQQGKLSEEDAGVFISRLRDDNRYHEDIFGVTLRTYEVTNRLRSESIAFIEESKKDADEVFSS
Sequence of bovine serum albumin (P02769 25-607): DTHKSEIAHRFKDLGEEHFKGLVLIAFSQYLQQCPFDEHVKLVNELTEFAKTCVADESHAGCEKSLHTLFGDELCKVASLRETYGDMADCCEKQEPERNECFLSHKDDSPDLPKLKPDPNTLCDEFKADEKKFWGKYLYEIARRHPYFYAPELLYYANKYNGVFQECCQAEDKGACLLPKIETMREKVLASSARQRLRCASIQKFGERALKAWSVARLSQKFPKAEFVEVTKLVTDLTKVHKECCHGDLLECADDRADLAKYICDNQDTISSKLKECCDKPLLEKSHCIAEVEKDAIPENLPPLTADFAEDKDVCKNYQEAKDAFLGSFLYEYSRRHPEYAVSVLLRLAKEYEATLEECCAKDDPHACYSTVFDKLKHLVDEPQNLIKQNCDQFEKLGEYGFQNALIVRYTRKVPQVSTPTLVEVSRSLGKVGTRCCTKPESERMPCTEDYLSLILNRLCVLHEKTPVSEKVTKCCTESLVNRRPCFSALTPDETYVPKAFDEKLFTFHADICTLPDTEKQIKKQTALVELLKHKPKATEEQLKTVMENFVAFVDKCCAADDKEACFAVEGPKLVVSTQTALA

SMILES: C[C@H](CCCC(C)(C)O)[C@H]1CC[C@H]2[C@@H]3CC=C4C[C@@H](O)CC[C@]4(C)[C@H]3CC[C@]12C [25-hydroxycholesterol]
Effect on nNOS activity (nNOS): do not affect | Effect on iNOS activity (iNOS): do not affect | Effect on eNOS activity (eNOS): do not affect

SMILES: CC(C)CCC[C@@H](C)[C@H]1CC[C@H]2[C@@H]3[C@@H](C=O)[C@]4(O)C[C@@H](O)CC[C@]4(C)[C@H]3CC[C@]12C [secosterol-B, 3β-hydroxy-5β-hydroxy-B-norcholestane-6β-carboxaldehyde]
Effect on nNOS activity (nNOS): do not affect | Effect on iNOS activity (iNOS): do not affect | Effect on eNOS activity (eNOS): do not affect

Effect on nNOS activity (nNOS): do not affect | Effect on nNOS activity (nNOS; listed as Cholesterol): no inhibitory effects | Effect on iNOS activity (iNOS): do not affect | Effect on iNOS activity (iNOS; listed as Cholesterol): no inhibitory effects | Effect on eNOS activity (eNOS): do not affect | Effect on eNOS activity (eNOS; listed as Cholesterol): no inhibitory effects
SMILES: CC(C)CCC[C@@H](C)[C@H]1CC[C@H]2[C@@H]3CC=C4C[C@@H](O)CC[C@]4(C)[C@H]3CC[C@]12C [cholesterol]

nNOS activity, % of the activity without secosterol-A (nNOS; 40 µM secosterol-A, 10 µM BH4): 23% | nNOS activity compared to the activity without secosterol-A (nNOS; 40 µM secosterol-A, 60 µM CaM): 22% | Restoration of inhibited nNOS activity by added BH4 (nNOS; 40 µM secosterol-A, 50 and 100 µM BH4): did not restore | nNOS activity compared to the activity without secosterol-A (nNOS; 40 µM secosterol-A, excess CaM 300 µM): 63% | nNOS activity compared to the activity without secosterol-A (nNOS; 40 µM secosterol-A, excess CaM 600 µM): 86% | Vmax(app)ʹ (nNOS; L-arginine as substrate, in the presence of 40 µM secosterol-A (10000 without inhibitor)): 909 µmol·L^−1·30 min^−1 | IC50 (nNOS; recombinant rat nNOS, 50 µM L-arginine, 30 min at 37°C): 22 ± 1 µM | Pattern of inhibition of nNOS activity (nNOS; varying CaM): noncompetitive or a mixed-type | Ki (nNOS; varying CaM, read-out: Kiʹ for the allosteric site (CaM-dependent nNOS activity)): 30 µM | Pattern of inhibition of nNOS activity (nNOS; varying L-arginine): noncompetitive or a mixed-type | Ki (nNOS; [1]): 10 µM | Ki (nNOS; varying L-arginine, read-out: Ki(app)ʹ for the allosteric site): 1 µM | Reactivity with proteins to form the adduct (bovine serum albumin): more easily than secosterol-B | Effect on iNOS activity (iNOS): did not affect | eNOS activity, % of the activity without secosterol-A (eNOS; 100 µM secosterol-A, 10 µM BH4): 41% | Restoration of inhibited eNOS activity by added BH4 (eNOS; 100 µM secosterol-A, 50 and 100 µM BH4): did not restore | Restoration of inhibited eNOS activity by excess CaM (eNOS; 100 µM secosterol-A, CaM 60–600 µM): did not restore | Vmax(app)ʹ (eNOS; L-arginine as substrate, in the presence of 50 µM secosterol-A (1400 without inhibitor)): 480 µmol·L^−1·30 min^−1 | IC50 (eNOS; recombinant bovine eNOS, 50 µM L-arginine, 30 min at 37°C): 50 ± 5 µM | Ki (eNOS; [1]): 50 µM
SMILES: CC(C)CCC[C@@H](C)[C@H]1CC[C@H]2[C@H](CC=O)[C@@H]([C@@]3(C)CC[C@H](O)CC3=O)CC[C@]12C [secosterol-A, 3β-hydroxy-5-oxo-5,6-secocholestan-6-al]

SMILES: CC(C)CCC[C@@H](C)[C@H]1CC[C@H]2[C@@H]3C[C@H]4O[C@]45C[C@@H](O)CC[C@]5(C)[C@H]3CC[C@]12C [5β,6β-epoxycholesterol]
Effect on nNOS activity (nNOS): do not affect | Effect on iNOS activity (iNOS): do not affect | Effect on eNOS activity (eNOS): do not affect

SMILES: CC(C)CCC[C@@H](C)[C@H]1CC[C@H]2[C@@H]3C(=O)C=C4C[C@@H](O)CC[C@]4(C)[C@H]3CC[C@]12C [7-ketocholesterol, 3β-hydroxy-5-cholesten-7-one]
Effect on nNOS activity (nNOS): do not affect | Effect on iNOS activity (iNOS): do not affect | Effect on eNOS activity (eNOS): do not affect
